# Assay results: patent US20080318982A1, “Pharmaceutical Combination for the Treatment of Luts” (Pfizer, Inc., priority 2005, published 2008)
# System: Anaesthetized Guinea-pig
# Assay: Filling cystometry in the anaesthetized guinea-pig (effects on lower urinary tract function)
# Format: in vivo
# Conditions: for % Change in Micturition Pressure / % Change in Threshold Volume: infused continuously for 60 min, vs baseline
# Protocol: Animals: Female Hartley guinea pigs (body weight 300-350 grams).
# Surgical procedure: The animals are anaesthetized with urethane (1.5 g/kg intraperitoneally) given as a divided dose of 80% initially and 20% 15 min later. Body temperature is maintained at 37±2° C. throughout the experiment. The bladder is exposed through a lower abdominal incision and a polyethylene catheter with a small cuff is inserted in the bladder dome and secured with a purse-string suture. The ureters are then ligatured. The bladder is replaced under the abdominal wall and the catheter is connected via a T-tube to a pressure transducer in order to measure intravesical pressure. The trachea is cannulated. The jugular vein is cannulated to allow administration of test compounds and the femoral artery is cannulated in order to collect plasma sample.
# Cystometry: A series of filling cystometry cycles are performed throughout the experimental measurement period to establish baseline parameters and determine drug effect. Before each cystometry cycle, the bladder is emptied manually. Saline at room temperature is then infused continuously into the bladder via the catheter at a flow rate of 600 μL/min until a micturition occurs. The following micturition parameters are measured during each cystometry cycle: Micturition Pressure (MP, the pressure in the bladder during voiding) and Threshold Volume (ThV, volume at which micturition occurs, mL).
# Evaluation of drug effect: After the determination of baseline parameters (mean of 3 micturition cycles), test substance or vehicle is administered continuously for 60 minutes. At the end of the drug infusion period, the effect of drug on cystometry parameters is determined by taking an average of the measurements made in two micturition cycles. For combination studies, the respective doses of the test compounds are infused together over a 60 min period following the measurement of baseline parameters.
Structure (SMILES),"effect on micturition pressure (in words) (Compound A 0.11 mg/kg, 0.32 mg/kg)",% Change in Micturition Pressure (Compound A 0.11 mg/kg),% Change in Threshold Volume (Compound A 0.11 mg/kg),% Change in Micturition Pressure (Compound A 0.32 mg/kg),% Change in Threshold Volume (Compound A 0.32 mg/kg),% Change in Micturition Pressure (Oxybutynin 3.18 mg/kg),% Change in Threshold Volume (Oxybutynin 3.18 mg/kg),effect on micturition pressure (in words) (oxybutynin 3.18 mg/kg)
"CCCOc1ccc(S(=O)(=O)N2CCN(CC)CC2)cc1-c1nc2c(CC)nn(Cc3ccccn3)c2c(=O)[nH]1 [Compound A, 3-ethyl-5-[5-(4-ethylpiperazin-1-ylsulphonyl)-2-n-propoxyphenyl]-1-(pyridin-2-yl)methyl-1,6-dihydro-7H-pyrazolo[4,3-d]pyrimidin-7-one]",small reduction,−6.7%,−2.7%,−6%,+11.4%,–,–,–
"CCN(CC)CC#CCOC(=O)C(O)(c1ccccc1)C1CCCCC1 (centres unmarked) [Oxybutynin, oxybutynin, reference compound]",–,–,–,–,–,+3.2%,+18.9%,small increase
